Assays:
Type in all cases: in vivo, BALB/c mice
[1] = test system: mouse fibrosarcoma cell line CMS5a; assay: Mouse tumor growth test; settings: FIG. 2; single dose of vaccine with CpG oligo DNA before subcutaneous CMS5a implantation (prophylactic condition); Student's t test
Text: Long chain peptide antigens MEN, all containing three types of mouse CD8+ T cell epitope sequences (MA p265 (Sequence No. 27), NY p81 (Sequence No. 29), and mERK2 9m (Sequence No. 28)), were synthesized. The interepitope sequences between the respective epitopes were respectively six consecutive tyrosines (Y6) (Sequence No. 1), six consecutive glycines (G6) (Sequence No. 2), or six consecutive prolines (P6) (Sequence No. 3). Each long chain peptide antigen was complexed with CHP and administered in a single dose as a vaccine to a mouse. As a control, a short chain peptide vaccine, constituted of just the mERK2 9m peptide, was mixed with Freund's incomplete adjuvant and administered. In the process of administration, CpG oligo DNA was coadministered as an adjuvant. On the day after administration, a mouse fibrosarcoma cell line CMS5a, expressing mERK2 as a tumor antigen and presenting the CD8+ T cell epitope mERK2 9m derived from the same antigen, was implanted subcutaneously and its growth was recorded over time.
A subcloned CMS5a cell line, obtained from a CMS5 cell line isolated from fibrosarcoma induced by administering 3-methylcholanthrene to a BALB/c mouse, expresses mutant ERK2 (mERK2) as a tumor antigen and presents a CD8^+ T cell epitope derived from the mERK2. The CMS5a cell line cultured in a T75 flask (Nunc) was detached using PBS containing 0.5% trypsin and collected in RPMI1640 medium containing 10% FBS. After centrifuging (400×g, 5 minutes, 4° C.), the supernatant was removed, and the cells were rinsed twice with RPMI1640 medium, thereafter suspended in RPMI1640 medium at a concentration of 1×10^6 cells/100 μL, and implanted subcutaneously in BALB/c mice at a dose of 100 μL/individual. The CHP/long chain peptide complexes and the adjuvant were administered 7 days before tumor implantation (prophylactic condition). After tumor implantation, the length and breadth of the tumor were measured and the product thereof was recorded as tumor size. The data in the tumor growth test were compared by Student's t test using Microsoft® Excel® (Microsoft Corporation).

[2] = test system: CD8+ T cells specific to MA p265, NY p81 and mERK2 9m; assay: Specific CD8+ T cell induction by CHP/long chain peptide vaccines in mice, intracellular cytokine staining of spleen cells; settings: for induction of specific CD8+ T cells corresponding to all three types of epitopes: FIG. 1, MEN antigens complexed with CHP, subcutaneous, CpG oligo DNA adjuvant, spleen cells one week after final administration
Text: Long chain peptide antigens MEN, all containing three types of mouse CD8+ T cell epitope sequences (MA p265 (Sequence No. 27), NY p81 (Sequence No. 29), and mERK2 9m (Sequence No. 28)), were synthesized. The interepitope sequences between the respective epitopes were respectively six consecutive tyrosines (Y6) (Sequence No. 1), six consecutive glycines (G6) (Sequence No. 2), six consecutive prolines (P6) (Sequence No. 3), or six consecutive threonines (T6) (Sequence No. 4). Each long chain peptide antigen was complexed with cholesterol-modified pullulan (CHP), which is a type of delivery system, and administered as a vaccine to a mouse. In the process of administration, CpG oligo DNA was coadministered as an adjuvant. Spleen cells were collected one week after the final administration and the frequencies of CD8+ T cells specific to the respective epitope sequences were measured by an intracellular cytokine staining method.
Long chain peptide antigens NME, all containing three types of mouse CD8+ T cell epitope sequences (MA p265 (Sequence No. 27), NY p81 (Sequence No. 29), and mERK2 9m (Sequence No. 28)), were synthesized. The antigens differ from the MEN sequences shown in FIG. 1 in the order of the three types of epitopes. The interepitope sequences between the respective epitopes were respectively six consecutive tyrosines (Y6) (Sequence No. 5), six consecutive glycines (G6) (Sequence No. 6), or six consecutive prolines (P6) (Sequence No. 7). Vaccines containing the respective long chain peptide antigens were administered to mice in the same manner as in FIG. 1 and the frequencies of CD8+ T cells specific to the respective epitope sequences were measured by the intracellular cytokine staining method.
(§1) Long chain peptide antigens MEN, ENM, and NME, all containing three types of mouse CD8+ T cell epitope sequences (MA p265 (Sequence No. 27), NY p81 (Sequence No. 29), and mERK2 9m (Sequence No. 28)), were synthesized. MEN, ENM, and MEN differ in the order of the three types of epitopes. The interepitope sequences between the respective epitopes were each six consecutive tyrosines (Y6) (Sequence Nos. 1, 5 and 8). Vaccines containing the respective long chain peptide antigens were administered to mice in the same manner as in FIG. 1 and the frequencies of CD8+ T cells specific to the respective epitope sequences were measured by the intracellular cytokine staining method.
Each long chain peptide was dissolved in dimethyl sulfoxide (DMSO) at a concentration of 10 mg/mL. CHP was dissolved in 6 M urea-containing phosphate buffered saline (PBS) at a concentration of 10 mg/mL 1 mL (10 mg) of the long chain peptide solution and 20 mL (200 mg) of the CHP solution were mixed and left to stand at room temperature overnight in a dark place. The liquid mixture was transferred into a dialysis membrane (molecular weight cutoff: 3,500; Thermo Fisher Scientific, Inc.) and dialyzed for 2 hours to overnight at 4° C. against 0.6 M urea-containing PBS of a volume ratio of not less than 100 times as the dialysis outer solution. Dialysis was then performed for 2 hours to overnight at 4° C. against 0.06 M urea-containing PBS of a volume ratio of not less than 100 times as the dialysis outer solution. Dialysis was performed again for 2 hours to overnight at 4° C. against PBS of a volume ratio of not less than 100 times as the dialysis outer solution. The dialyzed inner solution was collected, filtered through a filtration sterilization filter of 0.45 μm or 0.22 μm pore size, and thereafter the UV absorption at 280 nm was measured to determine the final concentration of the long chain peptide from its molecular extinction coefficient.
Each CHP/long chain peptide complex as the vaccine and the CpG oligo DNA as the adjuvant were administered at the same time to a mouse. Administration was performed by subcutaneous injection on the back of the mouse. […]

[3] = test system: F4/80+ cells (macrophages); assay: Uptake of FAM-labeled long chain peptide antigens in individual animals, regional lymph node macrophages; settings: FIG. 9, complexed with CHP, subcutaneous, 16 hours after administration
Procedure: The same FAM-labeled long chain peptide antigens as those in FIG. 8 were complexed with CHP and administered subcutaneously to mice. After 16 hours, cells were collected from a regional lymph node of the administration site, and the fluorescence uptakes into dendritic cells and mouse macrophages were measured by flow cytometry with the P4 fraction in the figure being deemed to correspond to the dendritic cells and the P5 fraction in the figure being deemed to correspond to the macrophages.
A test of uptake of long chain peptide antigens by antigen-presenting cells in individual animals was performed as follows. Each long chain peptide was fluorescence-labeled, complexed with a CHP nanogel, administered subcutaneously to BALB/c mice. 16 hours after administration, cells were collected from lymph nodes and after staining with the anti-CD11c antibody and the anti-F4/80 antibody, the uptake of the fluorescence-labeled long chain peptide antigens by CD11c^+ cells (dendritic cells) and F4/80^+ cells (macrophages) was analyzed by flow cytometry.

[4] = test system: mERK2 9m specific CD8+ T cells; assay: Specific CD8+ T cell induction in mice, intracellular cytokine staining (mERK2 9m epitope); settings: FIG. 6; comparing one to six tyrosines
Procedure: as §1, with “MEN,” for “MEN, ENM, and NME,”, “synthesized.” for “synthesized. MEN, ENM, and MEN differ in the order of the three types of epitopes.”, “one to” for “each”, “tyrosines” for “tyrosines (Y6)”, “1” for “1, 5”, “9-12).” for “8).”
as §1, with “MEN,” for “MEN, ENM, and NME,”, “synthesized.” for “synthesized. MEN, ENM, and MEN differ in the order of the three types of epitopes.”, “five to ten” for “each six”, “tyrosines” for “tyrosines (Y6)”, “1” for “1, 5”, “13-15).” for “8).”
Each CHP/long chain peptide complex as the vaccine and the CpG oligo DNA as the adjuvant were administered at the same time to a mouse. Administration was performed by subcutaneous injection on the back of the mouse. As the dose, the CHP/long chain peptide complex was administered at 0.05 to 0.1 mg equivalent of long chain peptide per administration. The CpG oligo DNA was administered at 0.05 mg per administration. One week after the final administration, spleen cells were separated by the following procedure from each vaccine-administered mouse. The spleen was isolated from the mouse and removed of blood by rinsing with RPMI1640 medium. After the spleen was triturated using a glass slide, the released cells were collected in RPMI1640 medium. After centrifuging (400×g, 5 minutes, 4° C.), the supernatant was removed and the cells were treated for 1 minute by adding 2 mL of ACK solution. […]

Sequence | growth of the tumor [1] | induction of specific CD8+ T cells corresponding to all three types of epitopes [2] | fluorescence uptake into macrophages of the regional lymph node [3] | induction of specific CD8+ T cells, mERK2 9m (second epitope) [4] | number of tyrosines of the interepitope sequence, judged in view of the results for the three types of epitopes ([2]; FIG. 6, comparing one to six tyrosines)
QYIHSANVL [mERK2 9m, reference compound] | significant suppression of tumor growth was not observed | – | – | – | –
SNPARYEFLGGGGGGQYIHSANVLGGGGGGRGPESRLL (Long chain peptide antigen, containing three types of mouse CD8+ T cell epitope sequences (MA p265, NY p81, and mERK2 9m)) [MEN(G6)] | significant suppression of tumor growth was not observed | clearly weak | hardly observed | – | –
SNPARYEFLPPPPPPQYIHSANVLPPPPPPRGPESRLL (Long chain peptide antigen, containing three types of mouse CD8+ T cell epitope sequences (MA p265, NY p81, and mERK2 9m)) [MEN(P6)] | significant suppression of tumor growth was not observed | clearly weak | hardly observed | – | –
SNPARYEFLYYYYQYIHSANVLYYYYRGPESRLL (Long chain peptide antigen, containing three types of mouse CD8+ T cell epitope sequences (MA p265, NY p81, and mERK2 9m)) [MEN(Y4)] | – | – | – | highest | satisfactory
